Laboratory results taken from paper PMC10713593, “Staphylococcus aureus functional amyloids catalyze degradation of β-lactam antibiotics” (Nature Communications, 2023).
Where “and” joins values, the source holds several entries; their conditions need not be identical. Equal values may be shown once.

Assays:
a2-PEG17K = system: T1, a2-PEG17K; assay: Source-data fits for PSMα variants (170 µM): initial rates of nitrocefin hydrolysis (up to 240 µM) by absorbance at 480 nm in 50 mM Hepes pH 7.4 at 20 °C.; format: biochemical; details: read-out: Km [uM] (AVG, source data sheet 2c,d_titration of nitrocefin)
T1 construct: synthetic peptide, pre-assembled; modification not described beyond the name
Experimental: (§1) Nitrocefin, a β-lactam widely used as a surrogate substrate of Penicillin in β-lactamase activity assay, was used as a substrate. NC degradation was monitored for 2 h. Nitrocefin stock solution was dissolved in acetonitrile (20 mM) and then diluted with Hepes buffer (50 mM, pH 7.4) to nitrocefin concentration of 360 µM (further dilutions to lower concentrations were made with the 360 µM NC stock). All nitrocefin samples were kept on ice in cold conditions and any further dilution or mixing was performed in ice-cold conditions to avoid self-hydrolysis background reaction. […] Immediately after mixing the samples, the plate was transferred to 20̊ °C pre-cooled plate reader (Multiskan GO, Thermo Scientific, Waltham, MA) and shaken slowly for 10 s. Then, the absorbance of degraded nitrocefin was measured for 2 h at interval of 20 s at λ = 480 nm. Initial production rates (V0) were calculated by slope of the initial linear range of degraded-nitrocefin production at the first 15 min. […] The initial rate calculations were performed while also subtracting the self-degradation of the substrate, to ensure that this product absorbance is a result of PSMα presence.
The initial rates of degraded-nitrocefin production were calculated from the slopes of the first 15 min of measurement as reported above. […]

[1] = Nitrocefin hydrolysis kinetics (absorbance of degraded nitrocefin at 480 nm; initial rates V0, Michaelis-Menten fit); format: biochemical; set-up: Initial nitrocefin-degradation reaction rate, V0: unit not given here; details: for Initial nitrocefin-degradation reaction rate, V0: Hepes pH 7.4, average of the six runs
Experimental: as §1, with “min. The reported results are and average of at least five separate measurements (the exact number of repeats, N, is reported next to the values). Each experiment also included blank samples of nitrocefin substrate diluted with buffer instead of PSMα.” for “min.”
The initial rates of degraded-nitrocefin production were calculated from the slopes of the first 15 min of measurement as reported above. The initial rates (V0) were fitted using non-linear regression applied with the solver function in excel, either to Michalis–Menten equation V=Vmax.[S]/(KM+S) Where Vmax. Stands for maximal reaction rate, KM stands for Michalis–Menten constant, [S] stands for the substrate molar concentration. Each initial rate value was presented as average ± SEM. The kinetic parameters were calculated by fitting the data to MM model using non-linear regression, and the confidence intervals for each parameter were calculated accordingly.

[2] = format: physicochemical; details: PSMα3 preformed fibrils 400 µM, titration pH 3 to 10 with NaOH 0.05M (Fig. S10)
[3] = format: biochemical; details: Aβ42 fibrils 100 µM, nitrocefin 170 µM, A480, two hours (Fig. S2)
[4] = system: Staphylococcus aureus (ATCC 25923); assay: Staphylococcus aureus sensitivity to nitrocefin in the presence of PSMα (growth curves, OD 600 nm); format: cell-based; details: nitrocefin 100 µg/mL, LB, 37 °C, 16 h
Experimental: The antimicrobial activity of nitrocefin against Staphylococcus aureus (ATCC 25923) was examined in the presence or absence of pre-assembled PSMα3, while monitoring the growth of the bacterial strain. PSMα3 fibrils were prepared as described above, in aqueous solution, in concentration of 100 µM. The bacterial growth was monitored in bacterial growth curves prepared as following: 3 µL of S. aureus microbial culture (OD = 1) were added to 100 µL LB media (Difco Luria-Bertani medium, BD, France). The bacterial solution was supplemented with 100 µM of the PSMα3 solution (dissolved and preincubated in DIW) or equivalent volume of DIW as a control. Then, aqueous solution of nitrocefin was added to each sample, generating final concentration of 100 µg/mL. As control, the growth curve of S. aureus was examined without any additives. All the samples were incubated while shaking in sterile clear 96-well plates at 37 °C for 16 h, and the absorbance at 600 nm was monitored every 20 min steps by microplate reader (Varioskan Flash, Thermo Scientific, Waltham, MA). Measurements were performed at three biological replicates, each with five technical replicates. The values were plotted in the graph as mean ± SD of representative results.
Figure S15. The effects of PSMα1 and PSMα4 upon nitrocefin in physiological scenarios. […]

Compound: O=C(Cc1cccs1)N[C@@H]1C(=O)N2C(C(=O)O)=C(/C=C/c3ccc([N+](=O)[O-])cc3[N+](=O)[O-])CS[C@H]12 [nitrocefin, 3-(2,4-Dinitrostyryl)-(6R,7R)-7-(2-thienylacetamido)-ceph-3-em-4-carboxylic acid]
- Km (a2-PEG17K): 2740 µM

Compound: CSCC[C@H](N)C(=O)N[C@@H](CCC(=O)O)C(=O)N[C@@H](Cc1ccccc1)C(=O)N[C@H](C(=O)N[C@@H](C)C(=O)N[C@@H](CCCCN)C(=O)N[C@@H](CC(C)C)C(=O)N[C@@H](Cc1ccccc1)C(=O)N[C@@H](CCCCN)C(=O)N[C@@H](Cc1ccccc1)C(=O)N[C@@H](Cc1ccccc1)C(=O)N[C@@H](CCCCN)C(=O)N[C@@H](CC(=O)O)C(=O)N[C@@H](CC(C)C)C(=O)N[C@@H](CC(C)C)C(=O)NCC(=O)N[C@@H](CCCCN)C(=O)N[C@@H](Cc1ccccc1)C(=O)N[C@@H](CC(C)C)C(=O)NCC(=O)N[C@@H](CC(N)=O)C(=O)N[C@@H](CC(N)=O)C(=O)O)C(C)C [PSMα3]
- ATR-FTIR amide-I peak/maximum: 1660 cm⁻¹ and 1650 cm⁻¹
- Initial nitrocefin-degradation reaction rate, V0 ([1]; PSMα 4.01424 uM, nitrocefin 60 µM): 0.4242
- Initial nitrocefin-degradation reaction rate, V0 ([1]; PSMα 6.02136 uM, nitrocefin 60 µM): -0.2476
- Initial nitrocefin-degradation reaction rate, V0 ([1]; PSMα 9.03205 uM, nitrocefin 60 µM): 0.6132
- Initial nitrocefin-degradation reaction rate, V0 ([1]; PSMα 13.5481 uM, nitrocefin 60 µM): 1.028
- Initial nitrocefin-degradation reaction rate, V0 ([1]; PSMα 20.3221 uM, nitrocefin 60 µM): 0.7515
- Initial nitrocefin-degradation reaction rate, V0 ([1]; PSMα 30.4832 uM, nitrocefin 60 µM): -1.835
- Initial nitrocefin-degradation reaction rate, V0 ([1]; PSMα 45.7247 uM, nitrocefin 60 µM): 5.684
- Initial nitrocefin-degradation reaction rate, V0 ([1]; PSMα 68.5871 uM, nitrocefin 60 µM): 8.525
- Initial nitrocefin-degradation reaction rate, V0 ([1]; PSMα 102.881 uM, nitrocefin 60 µM): 29.1642
- Initial nitrocefin-degradation reaction rate, V0 ([1]; PSMα 154.321 uM, nitrocefin 60 µM): 32.1116
- Initial nitrocefin-degradation reaction rate, V0 ([1]; PSMα 231.481 uM, nitrocefin 60 µM): 46.236
- Initial nitrocefin-degradation reaction rate, V0 ([1]; PSMα 347.222 uM, nitrocefin 60 µM): 69.7594
- nitrocefin degradation yield (turnover) ([1]; nitrocefin 60 µM, PSMα assemblies 350 µM, Hepes 50 mM pH 7.4, 20 °C, A480, monitored 2 h (Fig. 2a)): 75%
- initial rate of nitrocefin degradation reaction (V0) ([1]; peptide 170 µM, initial nitrocefin 107 µM, Hepes 50 mM pH 7.4, 20 °C, first 15 min (Fig. 3f)): around 60 µM/h
- time to degrade the entire nitrocefin reservoir ([1]; peptide 170 μM, nitrocefin 107 µM, Hepes pH 7.4 (Fig. 3e)): ~ 40 min
- pKa of the amines (first value) [2]: 7.8
- pKa of the amines (second value) [2]: 8.1

Compound: β-amyloid fibrils: Amyloid-β sequence 1-42 fibrils, control cross-β amyloid
- β-lactam (nitrocefin) degradation by control amyloid [3]: very low β-lactam degradation

Compound: O=C(Cc1cccs1)N[C@@H]1C(=O)N2C(C(=O)O)=C(C=Cc3ccc([N+](=O)[O-])cc3[N+](=O)[O-])CS[C@H]12 [nitrocefin, 3-(2,4-Dinitrostyryl)-(6R, 7R)−7-(2-thienylacetamido)-ceph-3-em-4-carboxylic Acid]
- effect of nitrocefin on bacterial growth [4]: significantly reduced bacterial proliferation
